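Interpolation was linear, between the two tested concentrations surrounding the appropriate level; five concentrations were tested over 48 hours in 96-well plates. The concentration for 50% growth inhibition is given as GI50.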 Activity calls are given as the source filed them. Cut-off read from the data, not from the text of the source: active = GI50 up to about 1.1 µM and inactive = higher.
Tests used:
Assay in all cases: DTP human tumour cell line panel, 48 h
U-251 = tested on: U-251
SR = tested on: SR
RXF 393 = tested on: RXF 393
HCT-15 = tested on: HCT-15
UACC-62 = tested on: UACC-62
A549 = tested on: A549
SK-MEL-2 = tested on: SK-MEL-2
TK-10 = tested on: TK-10
NCI-H522 = tested on: NCI-H522
SF-268 = tested on: SF-268
HL-60 = tested on: HL-60
COLO 205 = tested on: COLO 205
M14 = tested on: M14
HOP-62 = tested on: HOP-62
SW-620 = tested on: SW-620
CAKI-1 = tested on: CAKI-1
NCI-H460 = tested on: NCI-H460
DMS-114 = tested on: DMS-114
A498 = tested on: A498
HCC 2998 = tested on: HCC 2998
EKVX = tested on: EKVX
IGROV-1 = tested on: IGROV-1
Malme-3M = tested on: Malme-3M
SK-OV-3 = tested on: SK-OV-3
ACHN = tested on: ACHN
UO-31 = tested on: UO-31
786-0 = tested on: 786-0
SK-MEL-5 = tested on: SK-MEL-5
DMS-273 = tested on: DMS-273
OVCAR-5 = tested on: OVCAR-5
LXFL 529 = tested on: LXFL 529
OVCAR-8 = tested on: OVCAR-8
HT-29 = tested on: HT-29
SN12C = tested on: SN12C
CCRF-CEM = tested on: CCRF-CEM
SF-295 = tested on: SF-295
DLD-1 = tested on: DLD-1
XF498 = tested on: XF498
UACC-257 = tested on: UACC-257
HCT-116 = tested on: HCT-116
KM12 = tested on: KM12
RXF 631 = tested on: RXF 631
NCI-H226 = tested on: NCI-H226
SK-MEL-28 = tested on: SK-MEL-28
MOLT-4 = tested on: MOLT-4
OVCAR-3 = tested on: OVCAR-3
SF-539 = tested on: SF-539
HOP-92 = tested on: HOP-92
LOX IMVI = tested on: LOX IMVI
OVCAR-4 = tested on: OVCAR-4
SNB-75 = tested on: SNB-75
K562 = tested on: K562
NCI-H23 = tested on: NCI-H23
SNB-78 = tested on: SNB-78
RPMI-8226 = tested on: RPMI-8226
M19-MEL = tested on: M19-MEL
KM-20L2 = tested on: KM-20L2
SNB-19 = tested on: SNB-19
HOP-18 = tested on: HOP-18

Measured: GI50

COc1cc(Nc2nc3cc(C(F)(F)F)ccc3nc2-c2ccccc2)cc(OC)c1OC
inactive: U-251 57.4 µM | SR > 100 µM | RXF 393 18.1 µM | UACC-62 75.2 µM | A549 92.3 µM | SK-MEL-2 > 100 µM | TK-10 30.5 µM | NCI-H522 37.8 µM | SF-268 > 100 µM | HL-60 39.3 µM | COLO 205 > 100 µM | M14 > 100 µM | HOP-62 18.9 µM | SW-620 > 100 µM | NCI-H460 > 100 µM | DMS-114 > 100 µM | A498 > 100 µM | HCC 2998 > 100 µM | EKVX 24.3 µM | IGROV-1 27 µM | Malme-3M > 100 µM | SK-OV-3 31.6 µM | ACHN 65.5 µM | UO-31 > 100 µM | 786-0 40.7 µM | SK-MEL-5 34.4 µM | DMS-273 22.8 µM | OVCAR-5 > 100 µM | LXFL 529 > 100 µM | OVCAR-8 > 100 µM | HT-29 > 100 µM | SN12C > 100 µM | CCRF-CEM > 100 µM | SF-295 54.6 µM | DLD-1 > 100 µM | XF498 32.5 µM | UACC-257 73.6 µM | HCT-116 > 10 µM | KM12 > 100 µM | RXF 631 61.8 µM | NCI-H226 > 100 µM | SK-MEL-28 49.7 µM | MOLT-4 > 100 µM | OVCAR-3 73.3 µM | SF-539 54.8 µM | HOP-92 1.82 µM | LOX IMVI > 100 µM | OVCAR-4 5.82 µM | SNB-75 39.7 µM | K562 > 100 µM | NCI-H23 > 100 µM | SNB-78 46.2 µM
active: CAKI-1 < 0.01 µM
> 100 µM: HCT-15

CC(=O)NC(CCCNCc1ccccc1)C(=O)NCc1ccccc1 (configuration not stated)
inactive: U-251 > 100 µM | RXF 393 > 100 µM | UACC-62 > 100 µM | A549 > 100 µM | SK-MEL-2 > 100 µM | TK-10 > 100 µM | NCI-H522 > 100 µM | RPMI-8226 > 100 µM | SF-268 > 100 µM | COLO 205 > 100 µM | M19-MEL > 100 µM | M14 > 100 µM | HOP-62 > 100 µM | SW-620 > 100 µM | CAKI-1 > 100 µM | NCI-H460 > 100 µM | DMS-114 > 100 µM | A498 > 100 µM | HCC 2998 > 100 µM | KM-20L2 > 100 µM | EKVX > 100 µM | IGROV-1 > 100 µM | Malme-3M > 100 µM | SK-OV-3 > 100 µM | ACHN > 100 µM | UO-31 > 100 µM | 786-0 > 100 µM | SK-MEL-5 > 100 µM | DMS-273 > 100 µM | OVCAR-5 > 100 µM | LXFL 529 > 100 µM | OVCAR-8 > 100 µM | HT-29 > 100 µM | SN12C > 100 µM | CCRF-CEM > 100 µM | SF-295 > 100 µM | DLD-1 > 100 µM | XF498 > 100 µM | UACC-257 > 100 µM | SNB-19 > 100 µM | HCT-116 > 100 µM | KM12 > 100 µM | RXF 631 > 100 µM | NCI-H226 > 100 µM | SK-MEL-28 > 100 µM | MOLT-4 > 100 µM | OVCAR-3 > 100 µM | SF-539 > 100 µM | HOP-92 > 100 µM | LOX IMVI > 100 µM | OVCAR-4 > 100 µM | SNB-75 87.3 µM | K562 > 100 µM | NCI-H23 > 100 µM | SNB-78 82 µM
> 100 µM: HCT-15

CN(C)CCC(CCN(C)C)=NO
inactive: HOP-18 > 100 µM | U-251 > 100 µM | RXF 393 > 100 µM | UACC-62 > 100 µM | A549 > 100 µM | SK-MEL-2 > 100 µM | TK-10 > 100 µM | NCI-H522 > 100 µM | RPMI-8226 > 100 µM | SF-268 > 100 µM | HL-60 > 100 µM | COLO 205 > 100 µM | M19-MEL > 100 µM | M14 > 100 µM | HOP-62 > 100 µM | SW-620 > 100 µM | CAKI-1 > 100 µM | NCI-H460 > 100 µM | DMS-114 > 100 µM | A498 > 100 µM | HCC 2998 > 100 µM | KM-20L2 > 100 µM | EKVX > 100 µM | IGROV-1 > 100 µM | Malme-3M > 100 µM | SK-OV-3 > 100 µM | ACHN > 100 µM | UO-31 > 100 µM | 786-0 > 100 µM | SK-MEL-5 > 100 µM | DMS-273 > 100 µM | LXFL 529 > 100 µM | OVCAR-8 > 100 µM | HT-29 > 100 µM | SN12C > 100 µM | CCRF-CEM > 100 µM | SF-295 > 100 µM | DLD-1 > 100 µM | UACC-257 > 100 µM | SNB-19 > 100 µM | HCT-116 > 100 µM | KM12 > 100 µM | RXF 631 > 100 µM | SK-MEL-28 > 100 µM | MOLT-4 > 100 µM | OVCAR-3 > 100 µM | SF-539 > 100 µM | OVCAR-4 > 100 µM | SNB-75 > 100 µM | K562 > 100 µM | NCI-H23 > 100 µM | SNB-78 > 100 µM
> 100 µM: HCT-15

O=C(COc1ccccc1Cl)N1N=C(c2ccc(Cl)cc2)CC1(O)c1ccccc1 (configuration not stated)
inactive: U-251 > 100 µM | SR > 100 µM | UACC-62 > 100 µM | A549 > 100 µM | SK-MEL-2 > 100 µM | TK-10 > 100 µM | NCI-H522 > 100 µM | RPMI-8226 > 100 µM | SF-268 > 100 µM | HL-60 > 100 µM | COLO 205 > 100 µM | M19-MEL > 100 µM | M14 > 100 µM | HOP-62 > 100 µM | SW-620 > 100 µM | CAKI-1 > 100 µM | NCI-H460 > 100 µM | HCC 2998 > 100 µM | KM-20L2 > 100 µM | IGROV-1 > 100 µM | Malme-3M > 100 µM | SK-OV-3 > 100 µM | ACHN > 100 µM | UO-31 > 100 µM | 786-0 > 100 µM | DMS-273 > 100 µM | OVCAR-5 > 100 µM | LXFL 529 > 100 µM | OVCAR-8 > 100 µM | HT-29 > 100 µM | SN12C > 100 µM | SF-295 > 100 µM | DLD-1 > 100 µM | XF498 > 100 µM | UACC-257 > 100 µM | SNB-19 > 100 µM | HCT-116 > 100 µM | KM12 > 100 µM | RXF 631 > 100 µM | NCI-H226 > 100 µM | SK-MEL-28 > 100 µM | MOLT-4 > 100 µM | OVCAR-3 > 100 µM | SF-539 > 100 µM | HOP-92 > 100 µM | LOX IMVI > 100 µM | OVCAR-4 > 100 µM | SNB-75 > 100 µM | K562 > 100 µM | NCI-H23 > 100 µM | SNB-78 > 100 µM
> 100 µM: HCT-15

CCCCCCCCCCCCCCCCOP(=O)(O)Oc1ccc(/C=C\c2ccc(OP(=O)(O)OCCCCCCCCCCCCCCCC)cc2)cc1
inactive: HOP-18 70.3 µM | U-251 34 µM | SR 30 µM | RXF 393 2.47 µM | UACC-62 > 100 µM | A549 82.4 µM | SK-MEL-2 > 100 µM | TK-10 25.1 µM | NCI-H522 29.6 µM | RPMI-8226 19.3 µM | SF-268 34.9 µM | HL-60 26 µM | COLO 205 17.5 µM | M19-MEL 38.7 µM | M14 45.6 µM | HOP-62 38.1 µM | SW-620 > 100 µM | CAKI-1 > 100 µM | NCI-H460 56.4 µM | DMS-114 10.1 µM | A498 83.9 µM | HCC 2998 > 100 µM | KM-20L2 67.3 µM | EKVX > 100 µM | IGROV-1 30.8 µM | Malme-3M > 100 µM | SK-OV-3 > 100 µM | ACHN 40.6 µM | UO-31 > 100 µM | 786-0 26.2 µM | SK-MEL-5 > 100 µM | DMS-273 25.1 µM | OVCAR-5 > 100 µM | LXFL 529 28.3 µM | OVCAR-8 12.2 µM | HT-29 62.7 µM | SN12C > 100 µM | CCRF-CEM 29 µM | SF-295 29.6 µM | DLD-1 > 100 µM | UACC-257 > 100 µM | SNB-19 64.1 µM | HCT-116 54 µM | KM12 56.2 µM | RXF 631 48.5 µM | NCI-H226 42.7 µM | SK-MEL-28 > 100 µM | MOLT-4 59 µM | OVCAR-3 43.2 µM | HOP-92 5.02 µM | LOX IMVI > 100 µM | OVCAR-4 62.5 µM | SNB-75 12 µM | K562 36.1 µM | NCI-H23 23.5 µM | SNB-78 20.1 µM
> 100 µM: HCT-15

Source: ChEMBL document CHEMBL1201862, “PubChem BioAssay data set” (2004)
